Data set [1] concerns A549, Calu-3, and NCI-H292 cell line. Description: LDH release in pulmonary cell lines, statements not tied to one line. It is filed as cell-based. The note with it: cell lines investigated, pDNA lipoplexes. The protocol: Lactate dehydrogenase (LDH) release was used to assess the cytotoxicity of the formulations used in the transfection experiments described as outlined. Typically, at the end of each transfection experiment, the culture medium was removed and placed in another 96-wells plate. LDH activity was measured using a commercial kit (Cytotoxicity Detection Kit Plus, Roche Applied Science) according to the manufacturer's instructions. LDH activity was expressed as the percentage of the maximal LDH release obtained after treatment of the cells with the lysis solution kit (5 μL). Less than 10% LDH release was regarded as a measure of non-significant toxicity. Value for each sample is the mean of triplicate determinations (±SD).
In general terms: LDH leaks from cells whose membrane has failed.

In data set [2] the test system is BHK-21 cells. Description: LDH release assay, BHK-21 cells.
Data set [3] in a line: Hydrolytic stability of liposomes by 31P-NMR. The note with it: Table 3, liposomes.
Procedure: For hydrolysis rate measurements using ^31P-NMR, liposomes were obtained by a solvent injection technique. […] The lipids (10 μmol) were dissolved in PrOH (200 μL) and then injected with a syringe with a flow rate of ca. 600 μL/min and a stirring speed of 400 rpm into the appropriate aqueous buffer medium (either Hepes 10 mM pH 7.4 or AcOK/AcOH 10 mM pH 4.5).
The hydrolytic stability of CPDCs/conjugates under neutral and acidic conditions was evaluated in a model experiment involving ^31P-NMR measurements. Phosphotriesters and phosphodiesters display ^31P chemical shifts differing by 5-6 ppm allowing a precise monitoring of the hydrolysis reaction. CPDCs/conjugates were formulated into liposomes using an injection technique.[47] Liposomes were prepared at pH 7.4 and pH 4.5, and incubated at 37° C. and hydrolysis was monitored by ^31P-NMR measurements.
For hydrolysis rate measurements involving ^31P-NMR spectoscopy and BET intercallation assays, liposomes were prepared by a solvent injection technique. A dry lipid film (10 μmol) was dissolved in i-PrOH (200 μL) and then injected with a syringe (flow rate: 600 μL/min) under stirring (stirring speed: 400 rpm) in the middle of the appropriate aqueous buffer medium (either Hepes 10 mM, pH 7.4 or AcOK/AcOH 10 mM, pH 4.5), at 22° C.
The cationic lipids were formulated into liposomes using an injection technique as described hereabove. Liposomes were prepared at pH 7.4 and pH 4.5, and incubated at 37° C. Periodical acquisition of ^31P-NMR spectra allowed determination of the time t, required for 50% hydrolysis (Table 3).
Data set [4] can be described thus: Light scattering: particle size and zeta potential of lipoplexes. Conditions: pCMVLuc lipoplexes, 5% glucose, N/P 3, 25° C. It is filed as physicochemical. As to the method:
The average particle size of the liposomes and lipoplexes was measured by photon correlation spectroscopy using a Zetasizer nanoZS apparatus (Malvern Instruments, Paris, France). All measurements were conducted at 25° C. Data were analyzed using the multimodal number distribution software supplied with the instrument. For the preparation of lipoplexes, lipids were freshly solubilized in ethanol (1.24 mM) and deposited (60 μL) at the bottom of a 1.5 mL eppendorf tube. Volatiles were removed under reduced pressure to obtain a dry film. Typically, 404 μL of 60 μM solution of pCMVLuc in 4.5% glucose was added to the lipid. After 30 seconds vortexing and 15 minutes standing at room temperature, the complexes were diluted in 4.5 glucose (1096 μL) for measurements. Value for each sample is the mean of triplicate determinations (±SD).

Data set [5] relates to A549, Calu-3, and NCI-H292 cell line. As to the kind of experiment: pDNA transfection in pulmonary cell lines, statements not tied to one line. The data set is classed as cell-based. Conditions: whatever the cell line considered, pCMVLuc, N/P 1-5. As to the method: (§1) Lipids were freshly solubilized in ethanol at 1.24 mM concentration. Typically, 40.40 μL of 60 μM solution of DNA (pCMVLuc) in 4.5% glucose was added to the lipid (either 2.00, 5.85 or 9.75 μL deposited at the bottom of a 500 μL eppendorf tube and dried under vacuum). After gentle vortex agitation (30 sec), the complexes were allowed to stand at room temperature for 30 min before addition (10 μL, i.e. 0.2 μg DNA) into each well (triplicate). Cells were then let to grow in the incubator without further handling. Luciferase gene expression was assessed 24 h later using a commercial kit according to the manufacturer's protocol (Promega, Charbonnières, France). Cells were washed with PBS (100 μL) and lyzed with the Promega lysis buffer (20 μL). After agitation for 15 min, PBS (150 μL) was added. A 5 μL aliquot was transferred to a white microplate and luminescence was recorded for 1 sec with a luminometer (Berthold Centro LB960 XS, Thoiry, France) upon addition of the luciferin substrate (35 μL). Value for each sample is the mean of triplicate determinations (±SD).
The ability of compounds 1-9 to transfect plasmid DNA was assessed for the following cell lines: A549 cells (alveolar, human lung carcinoma), Calu-3 cells (bronchial, epithelial lung adenocarcinoma), and NCI-H292 cells (bronchial, human lung mucoepidermoid carcinoma). The results concerning transfection activity and LDH release for compounds 1 to 9 are shown in FIGS. 19A, 19B and 19C for cell line A549, Calu-3 and NCI-H292, respectively.

The subject of data set [6] is BHK-21 cells. As to the kind of experiment: pDNA (pCMVLuc) transfection in BHK-21 cells. The note with it: for pDNA transfection efficiency, in words: BHK-21, pCMVLuc, 10% FCS, N/P 1, 3, 5. The data set is classed as cell-based, Syrian hamster. The protocol:
as §1
The ability to transfect siRNA into U87Luc cells and pCMVLuc pDNA into BHK-21 was assessed for each synthetized analogue as shown in parts A and B hereabove.

In the next data set the test system is U87Luc cells. As to the kind of experiment: LDH release assay, U87Luc cells. The data set is classed as cell-based, human.
For another data set, the system named is U87-Luc cells. Description: siRNA transfection, luciferase gene silencing. It is filed as cell-based, human. Set-up: Percentage of residual luciferase expression, Control siRNA, N/P: 25 / Percentage of residual luciferase expression, Control siRNA, N/P: 50 / Percentage of residual luciferase expression, Control siRNA, N/P: 100: concentration or dose not given beside the values. The note with it: for luciferase silencing / siRNA transfection activity, in words: U87-Luc cells, siLuc vs control siRNA, 48 h, 10% FBS.

For data set [7], the system named is BHK-21 cells.
A further data set has as its system 16HBE cells. As to the kind of experiment: Cell mitochondrial activity (MTT assay). It is filed as cell-based. Conditions: 48 h. On the technique in general: Tetrazolium assays rely on reduction of a dye to a coloured formazan, in cell work by metabolically active cells.
The test system of the next data set is Sheep erythrocytes. As to the kind of experiment: Erythrocyte leakage (hemolysis) assay. Conditions: 2 h, 37° C. The data set is classed as cell-based. As to the method:
Hemolysis experiments were carried out according to a procedure described elsewhere. For recovery from washing steps, sheep red blood cells were centrifuged at 400 RCF for 10 min, and washed three times with 150 mM NaCl. […] Complete hemolysis was achieved using deionized water yielding the 100% control value. The negative control was obtained by suspension of RBC in phosphate buffer alone. The experiments were performed in triplicate.

Where “and” joins values, the source holds several entries; their conditions need not be identical. Identical values can stand only once. Like-named read-outs stand apart in the source and are kept apart here.

Procedure for 16HBE cells: Cells were grown in culture flasks (Becton-Dickinson) with DMEM culture medium supplemented with 10% FBS, 100 U/mL penicillin, 100 mg/mL streptomycin, 2 mM L-glutamine, and 5 mM Hepes. Culture was carried out at 37° C., in a 5% CO2 and humidified atmosphere. At confluence, cells were released with trypsin (0.5% in PBS), counted and transferred into a 96-well plate (Becton-Dickinson) at a density of 6,000 cells/well. On the next day (24 h later), culture medium was changed to fresh DMEM medium supplemented with 10% FBS before addition of lipoplexes (100 μL) prepared as described above. After a 48 h incubation period at 37° C., culture supernatant was removed, cells were carefully washed with PBS and 0.5 mg/mL MTT (1 mL) in complete culture medium was added. After a 2 h incubation period at 37° C., MTT solution was removed and DMSO (1 mL) was added to lyse cells and dissolve reduced MTT. Intensity of MTT reduction was then evaluated by measuring absorbance at 570 nm. Viability of cells treated with lipoplexes was expressed as the percentage of the absorbance measured in untreated cells. Value for each sample is the mean of triplicate determinations (±SD).

In the case of “1,2-Dioleoyl-sn-glycero-3-{1-[(dodecyloxycarbonyl)oxy]-2-methylpropyl}phosphocholine chloride [PP178]”, the “LDH release / cell toxicity, in words” value in data set [1] is reported as “significant LDH release”. This molecule displayed an LDH release in the data set with BHK-21 cells [2] (BHK-21, Part B pDNA lipoplexes, N/P 1, 3 and 5) of 11%. Further, the “t1/2 (h), time required for 50% hydrolysis” value in [3] (pH 4.5, 37° C.) came out at 498 h. The “t1/2 (h), time required for 50% hydrolysis” value in [3] (pH 7.4, 37° C.) is 497 h. In data set [4], the “Particle size (nm)” value amounted to 721.8 ± 65.7 nm and the “Zeta potential (mV)” value is “+48.5 mV”. The “pDNA transfection activity, in words” value in [5] was “highest cell transfection levels”. The “pDNA transfection efficiency, in words” value with BHK-21 cells [6] is “more effective than control phospholipid EDOPC”.

Regarding “1,2-Dioleoyl-sn-glycero-3-{1-[(dodecyloxycarbonyl)oxy]ethyl}phosphocholine chloride [PP120]”, the “LDH release / cell toxicity, in words” value in data set [1] was “significant LDH release”. Besides, the “t1/2 (h), time required for 50% hydrolysis” value in data set [3] (pH 4.5, 37° C.) came to 27 h. Besides, the “t1/2 (h), time required for 50% hydrolysis” value in data set [3] (pH 7.4, 37° C.) came out at 29 h. Besides, in data set [4], the “Particle size (nm)” value is 819.3 ± 79.8 nm and the “Zeta potential (mV)” value is listed as “+62.9 mV”. Further, the “pDNA transfection activity, in words” value in data set [5] is “significant transfection activity”. In addition, the “pDNA transfection efficiency, in words” value in the data set with BHK-21 cells [6] is “more effective than control phospholipid EDOPC”.

Take “1,2-Dioleoyl-sn-glycero-3-{4-[(dodecyloxy)-4-oxobutanoyloxy]methyl}phosphocholine chloride [PP93]”: in data set [4], the “Particle size (nm)” value was 364.3 ± 34.6 nm and the “Zeta potential (mV)” value is listed as −18.0 mV. The “pDNA transfection activity, in words” value in [5] was “significant transfection activity”. In the data set with BHK-21 cells [6] (BHK-21, lipid/DOPE mixtures, 1:1 molar ratio), the “effect of helper lipid DOPE on pDNA transfection efficiency” value is reported as “unable to assist DNA transfection when mixed with DOPE”.

On to `CCCCCCCCC=CCCCCCCCC(=O)OCC(COP(=O)(OCCCCCCCCCCCC)OCC[N+](C)(C)C)OC(=O)CCCCCCCC=CCCCCCCCC` (mixture of isomers) [PP514], for which the “Percentage of LDH release, Lipoplex with siRNA (U87Luc), N/P: 25” value in the data set with U87Luc cells (Table 10, N/P 25) is given as −2.36%. For the same molecule, in the data set with U87Luc cells (Table 10, N/P 50), the “Percentage of LDH release, Lipoplex with siRNA (U87Luc), N/P: 50” value is −3.13%. Further, the “Percentage of LDH release, Lipoplex with siRNA (U87Luc), N/P: 100” value in the data set with U87Luc cells (Table 10, N/P 100) is reported as −3.29%. In the data set on U87-Luc cells (Table 8, N/P 25), the “Percentage of residual luciferase expression, Control siRNA, N/P: 25” value was 100.51% and the “Percentage of residual luciferase expression, Luc-targeting siRNA, N/P: 25” value came to 103.75%. In the data set with U87-Luc cells (Table 8, N/P 50), the “Percentage of residual luciferase expression, Control siRNA, N/P: 50” value was found to be 98.50% and the “Percentage of residual luciferase expression, Luc-targeting siRNA, N/P: 50” value was found to be 101.21%. Besides, in the data set with U87-Luc cells (Table 8, N/P 100), the “Percentage of residual luciferase expression, Control siRNA, N/P: 100” value came to 94.58% and the “Percentage of residual luciferase expression, Luc-targeting siRNA, N/P: 100” value worked out at 99.76%. Moreover, the “luciferase silencing / siRNA transfection activity, in words” value with U87-Luc cells was “totally inefficient to transfect siRNA”. In the data set on BHK-21 cells [7], the “Percentage of LDH release, Lipoplex with pDNA (BHK-21), N/P: 1” value is recorded as 0.15%; the “Percentage of LDH release, Lipoplex with pDNA (BHK-21), N/P: 3” value was determined as 0.76%; the “Percentage of LDH release, Lipoplex with pDNA (BHK-21), N/P: 5” value was 0.46%. Also, in the data set on BHK-21 cells [6], the “pDNA transfection efficiency, in words” value is “able to transfect DNA into cells”. In addition, in the data set on BHK-21 cells [6] (Table 9, N/P 1), the “Luciferase expression (RLU/well), N/P: 1” value is given as 1.49 × 10^7 RLU/well. The “Luciferase expression (RLU/well), N/P: 3” value with BHK-21 cells [6] (Table 9, N/P 3) is given as 1.26 × 10^7 RLU/well. Further, in the data set on BHK-21 cells [6] (Table 9, N/P 5), the “Luciferase expression (RLU/well), N/P: 5” value is on record as 2.79 × 10^7 RLU/well.

On to `CCCCCCCC/C=C\CCCCCCCC(=O)OCC(C[N+](C)(C)C)OC(=O)CCCCCCC/C=C\CCCCCCCC.[Cl-]` (stereo not drawn) [DOTAP, 1,2-Dioleoyloxy-3-(N,N,N-trimethylamino)propyl chloride], for which the “luciferase silencing / siRNA transfection activity, in words” value with U87-Luc cells is given as “unable to assist siRNA silencing activity”.

Regarding `CCCCCCCCCCCCCCCC(=O)OC[C@H](COP(=O)(OCCOCCOCCOCCOCCOCCOCCOCCOCCOc1ccc(C(C)(C)CC(C)(C)C)cc1)OCC[N+](C)(C)C)OC(=O)CCCCCCCCCCCCCCC` (stereo partly drawn) [PP431], the “Percentage of LDH release, Lipoplex with siRNA (U87Luc), N/P: 25” value in the data set with U87Luc cells (Table 7, N/P 25) was −1.94%. For the same molecule, in the data set with U87Luc cells (Table 7, N/P 50), the “Percentage of LDH release, Lipoplex with siRNA (U87Luc), N/P: 50” value is −1.83%. For the same molecule, in the data set with U87Luc cells (Table 7, N/P 100), the “Percentage of LDH release, Lipoplex with siRNA (U87Luc), N/P: 100” value worked out at 4.24%. Also, the “Percentage of LDH release, Lipoplex with pDNA (BHK-21), N/P: 1” value with BHK-21 cells [2] (Table 7, N/P 1) is −0.09%. The “Percentage of LDH release, Lipoplex with pDNA (BHK-21), N/P: 3” value in the data set on BHK-21 cells [2] (Table 7, N/P 3) is on record as 5.25%. For the same molecule, the “Percentage of LDH release, Lipoplex with pDNA (BHK-21), N/P: 5” value in the data set with BHK-21 cells [2] (Table 7, N/P 5) was 2.38%. Besides, in the data set on U87-Luc cells (Table 5, N/P 25), the “Percentage of residual luciferase expression, Control siRNA, N/P: 25” value was determined as 96.59% and the “Percentage of residual luciferase expression, Luc-targeting siRNA, N/P: 25” value was 107.08%. Besides, in the data set on U87-Luc cells (Table 5, N/P 50), the “Percentage of residual luciferase expression, Control siRNA, N/P: 50” value is 64.76% and the “Percentage of residual luciferase expression, Luc-targeting siRNA, N/P: 50” value amounted to 75.27%. Also, in the data set on U87-Luc cells (Table 5, N/P 100), the “Percentage of residual luciferase expression, Control siRNA, N/P: 100” value was 54.07% and the “Percentage of residual luciferase expression, Luc-targeting siRNA, N/P: 100” value worked out at 54.05%. Further, the “Luciferase expression (RLU/well), N/P: 1” value with BHK-21 cells [6] (Table 6, N/P 1) is recorded as 4.90 × 10^5 RLU/well. For the same molecule, in the data set on BHK-21 cells [6] (Table 6, N/P 3), the “Luciferase expression (RLU/well), N/P: 3” value is given as 6.45 × 10^6 RLU/well. For the same molecule, the “Luciferase expression (RLU/well), N/P: 5” value in the data set on BHK-21 cells [6] (Table 6, N/P 5) is given as 6.75 × 10^6 RLU/well.

With Triton X-100 [TX100], the “concentration enough to decrease cell viability” value in the data set with 16HBE cells is 20 to 40 µM. The “concentration achieving full membrane permeation to hemoglobin” value with Sheep erythrocytes is 200 µM and 150 to 200 µM.

Values taken from US20140243391A1, “PHOSPHOLIPID-DETERGENT CONJUGATES AND USES THEREOF” (CENTRE NATIONAL DE LA RECHERCHE SCIENTIFIQUE, priority 2011, published 2014).
